Structures can show the parent of a compound that is named as a salt.
Assays:
[1] = system: serum level of PTH (1-34+1-84); experiment: Rats with chronic renal failure (5/6 nephrectomy), serum PTH after oral administration; type: in vivo, rats (Sprague-Dawley)
Method: II—Rats with Chronic Renal Failure • Chronic renal failure (CRF) was induced in male rats (220-250 g, Sprague-Dawley, CERJ) by ablation of ⅚ of the total renal mass. • After anaesthesia (Imalgene 1000), the rats were subjected to exeresis of the right kidney and ablation of both ends of the left kidney, representing approximately ⅔ of the organ). • The incision was cauterised by application of dry ice. […] The sera were frozen at −20° C. • After thawing, the serum level of PTH (1-34+1-84) was measured by a radioimmunology test (IRMA kit, rat, Immutopics).

[2] = system: serum level of PTH (1-34+1-84); experiment: PTH measurement on intact rats (serum PTH after oral administration); type: in vivo, rats (Sprague-Dawley); conditions: intact male rats
[3] = Rattus norvegicus, 0.5 h, 10 mg/kg, 30 min, read-out: % PTH reduction at 30 min relative to the untreated group

Structure (SMILES): O=C(Nc1nc2ccc(Cl)cc2s1)N(CCC(c1ccccc1)c1ccccc1)CCN1CCOCC1 [Example 2, 3-(6-chloro-benzothiazol-2-yl)-1-(3,3-diphenyl-propyl)-1-(2-morpholin-4-yl-ethyl)-urea dihydrochloride]
- change in vivo at 10 mg/kg [1, 3]: -84%
- % PTH reduction at time t, relative to the untreated group ([2]; 30 mg/kg, at 30 mn): −93% at 30 mn

Structure (SMILES): O=C(Nc1nc(-c2ccc(N3CCCC3)cc2)cs1)N(CCC(c1ccccc1)c1ccccc1)CCN1CCOCC1 [Example 36, 1-(3,3-diphenyl-propyl)-1-(2-morpholin-4-yl-ethyl)-3-[4-(4-pyrrolidin-1-yl-phenyl)-thiazol-2-yl]-urea trihydrochloride]
- change in vivo at 10 mg/kg [1, 3]: -98%

Structure (SMILES): O=C(Nc1nc2ccccc2s1)N(CCC(c1ccccc1)c1ccccc1)CCN1CCOCC1 [Example 8, 3-benzothiazol-2-yl-1-(3,3-diphenyl-propyl)-1-(2-morpholin-4-yl-ethyl)-urea dihydrochloride]
- % PTH reduction at 2 h relative to the untreated group ([1]; 10 mg/kg, 2 h): −90%
- change in vivo at 10 mg/kg [1, 3]: -80%

Structure (SMILES): Cc1ccc(-c2csc(NC(=O)N(CCC(c3ccccc3)c3ccccc3)CCN3CCOCC3)n2)o1 [Example 60, 1-(3,3-diphenyl-propyl)-3-[4-(5-methyl-furan-2-yl)-thiazol)-2-yl]-1-(2-morpholin-4-yl-ethyl)-urea dihydrochloride]
- change in vivo at 10 mg/kg [1, 3]: -87%

Structure (SMILES): Cc1ccc(-c2csc(NC(=O)N(CCC(c3ccccc3)c3ccccc3)CCN3CCOCC3)n2)cc1 [Example 28, 1-(3,3-diphenyl-propyl)-1-(2-morpholin-4-yl-ethyl)-3-(4-p-tolyl-thiazol-2-yl)-urea dihydrochloride]
- change in vivo at 10 mg/kg [1, 3]: -91%

Structure (SMILES): O=C(Nc1nc(-c2ccc(F)cc2)cs1)N(CCC(c1ccccc1)c1ccccc1)CCN1CCOCC1 [54 a]
- % PTH reduction at time t, relative to the untreated group ([2]; 10 mg/kg, at 2 h): −78% at 2 h

Structure (SMILES): N#Cc1ccc(-c2csc(NC(=O)N(CCC(c3ccccc3)c3ccccc3)CCN3CCOCC3)n2)cc1 [Example 44, 3-[4-(4-cyano-phenyl)-thiazol-2-yl]-1-(3,3-diphenyl-propyl)-1-(2-morpholin-4-yl-ethyl)-urea dihydrochloride]
- change in vivo at 10 mg/kg [1, 3]: -88%

Structure (SMILES): O=C(Nc1nc(-c2cccnc2)cs1)N(CCC(c1ccccc1)c1ccccc1)CCN1CCOCC1 [Example 47, 1-(3,3-diphenyl-propyl)-1-(2-morpholin-4-yl-ethyl)-3-(4-pyridin-3-yl-thiazol-2-yl)-urea trihydrochloride]
- change in vivo at 30 mg/kg ([1]; Rattus norvegicus, 0.5 h, 30 mg/kg, 30 min, read-out: % PTH reduction at 30 min relative to the untreated group): -96%

Structure (SMILES): CCOC(=O)c1cc(-c2csc(NC(=O)N(CCC(c3ccccc3)c3ccccc3)CCN3CCOCC3)n2)on1 [Example 31, 5-{2-[3-(3,3-diphenyl-propyl)-3-(2-morpholin-4-yl-ethyl)-ureido]-thiazol-4-yl}-isoxazole-3-carboxylic acid ethyl ester dihydrochloride]
- change in vivo at 10 mg/kg [1, 3]: -85%

Structure (SMILES): CS(=O)(=O)c1ccc(-c2csc(NC(=O)N(CCC(c3ccccc3)c3ccccc3)CCN3CCOCC3)n2)cc1 [40 a]
- % PTH reduction at time t, relative to the untreated group ([2]; 10 mg/kg, at 2 h): −71% at 2 h

Structure (SMILES): O=C(Nc1nc(-c2ccc(Cl)cc2)cs1)N(CCC(c1ccccc1)c1ccccc1)CCN1CCOCC1 [Example 25, 3-[4-(4-chloro-phenyl)-thiazol-2-yl]-1-(3,3-diphenyl-propyl)-1-(2-morpholin-4-yl-ethyl)-urea dihydrochloride]
- change in vivo at 10 mg/kg [1, 3]: -74%

Structure (SMILES): COc1ccc(-c2csc(NC(=O)N(CCC(c3ccccc3)c3ccccc3)CCN3CCOCC3)n2)cc1 [51 a]
- % PTH reduction at time t, relative to the untreated group ([2]; 10 mg/kg, at 2 h): −78% at 2 h

Reference: US8247412B2, “Urea derivatives methods for their manufacture and uses thereof” (Galapagos Sasu, priority 2005, dated 2012)
